Data reported in the NIST ThermoML archive (doi:10.1021/acs.jced.7b01011).
± gives the expanded uncertainty stated by the source.

Assays:
[1] = Molar enthalpy of transition or fusion; conditions: Crystal; DSC
[2] = Crystal; DTA

- Molar enthalpy of transition or fusion [1]: 6.16 ± 0.232 kcal/mol
- Normal melting temperature [2]: 108.00 ± 1.1 °C
Compound: Cc1ccc(NC(=O)/C(=C/Cl)Sc2ccccc2)cc1 [(Z)-3-chloro-2-phenylthio-N-(p-tolyl)acrylamide]
